Measured values reported in ChEMBL document CHEMBL1275550, “In vitro activity of doripenem, a carbapenem for the treatment of challenging infections caused by gram-negative bacteria, against recent clinical isolates from the United States” (2008).
Values after ≈ are worked out from the molar mass of the structure shown.

Columns and labels:
Enterobacteriaceae [1] = assay: Antimicrobial activity against ceftazidime-susceptible Enterobacteriaceae by broth microdilution method; type: functional
Enterobacteriaceae [2] = assay: Antimicrobial activity against ceftazidime-susceptible Enterobacteriaceae assessed as susceptible isolate by broth microdilution method; type: functional
Enterobacteriaceae [3] = assay: Antimicrobial activity against ceftazidime-susceptible Enterobacteriaceae assessed as intermediate isolate by broth microdilution method; type: functional
Enterobacteriaceae [4] = assay: Antimicrobial activity against ceftazidime-susceptible Enterobacteriaceae assessed as resistant isolate by broth microdilution method; type: functional
Enterobacteriaceae [5] = assay: Antimicrobial activity against Ceftazidime non-susceptible Enterobacteriaceae assessed as intermediate isolate by broth microdilution method; type: functional
Escherichia coli [6] = assay: Antimicrobial activity against Non-ESBL Escherichia coli assessed as susceptible isolate by broth microdilution method; type: functional
Escherichia coli [7] = assay: Antimicrobial activity against ESBL producing Escherichia coli assessed as susceptible isolate by broth microdilution method; type: functional
Klebsiella pneumoniae [8] = assay: Antimicrobial activity against ESBL producing Klebsiella pneumoniae by broth microdilution method; type: functional
Klebsiella pneumoniae [9] = assay: Antimicrobial activity against ESBL producing Klebsiella pneumoniae assessed as intermediate isolate by broth microdilution method; type: functional
Proteus mirabilis [10] = assay: Antimicrobial activity against Non-ESBL Proteus mirabilis by broth microdilution method; type: functional
Proteus mirabilis [11] = assay: Antimicrobial activity against ESBL producing Proteus mirabilis by broth microdilution method; type: functional
Pseudomonas aeruginosa [12] = assay: Antimicrobial activity against Pseudomonas aeruginosa isolated from non-ICU patient by broth microdilution method; type: functional
Pseudomonas aeruginosa [13] = assay: Antimicrobial activity against Pseudomonas aeruginosa isolated from ICU patient by broth microdilution method; type: functional
Proteus mirabilis [14] = assay: Antimicrobial activity against Non-ESBL Proteus mirabilis assessed as susceptible isolate by broth microdilution method; type: functional
Proteus mirabilis [15] = assay: Antimicrobial activity against ESBL producing Proteus mirabilis assessed as susceptible isolate by broth microdilution method; type: functional
Enterobacter cloacae [16] = assay: Antimicrobial activity against Enterobacter cloacae with nonderepressed AmpC beta-lactamsae by broth microdilution method; type: functional
Enterobacter cloacae [17] = assay: Antimicrobial activity against Enterobacter cloacae with derepressed AmpC beta-lactamsae by broth microdilution method; type: functional
Enterobacter cloacae [18] = assay: Antimicrobial activity against Enterobacter cloacae with nonderepressed AmpC beta-lactamsae assessed as intermediate isolate by broth microdilution method; type: functional
Enterobacter cloacae [19] = assay: Antimicrobial activity against Enterobacter cloacae with derepressed AmpC beta-lactamsae assessed as susceptible isolate by broth microdilution method; type: functional
Citrobacter [20] = assay: Antimicrobial activity against Citrobacter with derepressed AmpC beta-lactamsae by broth microdilution method; type: functional
Citrobacter [21] = assay: Antimicrobial activity against Citrobacter with derepressed AmpC beta-lactamsae assessed as susceptible isolate by broth microdilution method; type: functional
Citrobacter [22] = assay: Antimicrobial activity against Citrobacter with derepressed AmpC beta-lactamsae assessed as intermediate isolate by broth microdilution method; type: functional
Serratia marcescens [23] = assay: Antimicrobial activity against Ceftazidime susceptible Serratia marcescens by broth microdilution method; type: functional
Serratia marcescens [24] = assay: Antimicrobial activity against Ceftazidime susceptible Serratia marcescens assessed as susceptible isolate by broth microdilution method; type: functional
Serratia marcescens [25] = assay: Antimicrobial activity against Ceftazidime non-susceptible Serratia marcescens assessed as susceptible isolate by broth microdilution method; type: functional
Pseudomonas aeruginosa [26] = assay: Antimicrobial activity against Ceftazidime susceptible Pseudomonas aeruginosa by broth microdilution method; type: functional
Pseudomonas aeruginosa [27] = assay: Antimicrobial activity against imipenem susceptible Pseudomonas aeruginosa by broth microdilution method; type: functional
Pseudomonas aeruginosa [28] = assay: Antimicrobial activity against imipenem non-susceptible Pseudomonas aeruginosa by broth microdilution method; type: functional
Pseudomonas aeruginosa [29] = assay: Antimicrobial activity against Ceftazidime susceptible Pseudomonas aeruginosa assessed as intermediate isolate by broth microdilution method; type: functional
Pseudomonas aeruginosa [30] = assay: Antimicrobial activity against Ceftazidime susceptible Pseudomonas aeruginosa assessed as resistant isolate by broth microdilution method; type: functional
Pseudomonas aeruginosa [31] = assay: Antimicrobial activity against Ceftazidime non-susceptible Pseudomonas aeruginosa assessed as susceptible isolate by broth microdilution method; type: functional
Pseudomonas aeruginosa [32] = assay: Antimicrobial activity against Ceftazidime non-susceptible Pseudomonas aeruginosa assessed as intermediate isolate by broth microdilution method; type: functional
Pseudomonas aeruginosa [33] = assay: Antimicrobial activity against Ceftazidime non-susceptible Pseudomonas aeruginosa assessed as resistant isolate by broth microdilution method; type: functional
Pseudomonas aeruginosa [34] = assay: Antimicrobial activity against imipenem susceptible Pseudomonas aeruginosa assessed as susceptible isolate by broth microdilution method; type: functional
Pseudomonas aeruginosa [35] = assay: Antimicrobial activity against imipenem susceptible Pseudomonas aeruginosa assessed as intermediate isolate by broth microdilution method; type: functional
Pseudomonas aeruginosa [36] = assay: Antimicrobial activity against imipenem non-susceptible Pseudomonas aeruginosa assessed as susceptible isolate by broth microdilution method; type: functional
Pseudomonas aeruginosa [37] = assay: Antimicrobial activity against imipenem non-susceptible Pseudomonas aeruginosa assessed as intermediate isolate by broth microdilution method; type: functional
Acinetobacter = assay: Antimicrobial activity against imipenem non-susceptible Acinetobacter assessed as resistant isolate by broth microdilution method; type: functional
Pseudomonas aeruginosa [38] = assay: Antimicrobial activity against Pseudomonas aeruginosa isolated from patient by broth microdilution method
Pseudomonas aeruginosa [39] = assay: Antimicrobial activity against Pseudomonas aeruginosa isolated from non-ICU patient by broth microdilution method
Pseudomonas aeruginosa [40] = assay: Antimicrobial activity against Pseudomonas aeruginosa isolated from ICU patient assessed as resistant isolate by broth microdilution method

`CC(C)(O/N=C(\C(=O)N[C@@H]1C(=O)N2C(C(=O)[O-])=C(C[n+]3ccccc3)CS[C@H]12)c1csc(N)n1)C(=O)O` [CEFTAZIDIME] was tested, and the MIC50 (Enterobacteriaceae [1]) was 0.12 mg/L (≈ 0.22 µM), the MIC90 (Enterobacteriaceae [1]) was 0.5 mg/L (≈ 0.915 µM) and the Activity (Enterobacteriaceae [2]) was 100%. It also gave an Activity (Enterobacteriaceae [3]) of 0%, an Activity (Enterobacteriaceae [4]) of 0% and an Activity (Enterobacteriaceae [5]) of 7.6%. The Activity (Escherichia coli [6]) was 98.6%, the Activity (Escherichia coli [7]) was 33.3% and the MIC50 (Klebsiella pneumoniae [8]) was > 32 mg/L. The MIC90 (Klebsiella pneumoniae [8]) was > 32 mg/L, the Activity (Klebsiella pneumoniae [9]) was 0% and the MIC (Proteus mirabilis [10]) was ≤ 0.03 mg/L. For the same compound, the MIC50 (Proteus mirabilis [10]) was ≤ 0.03 mg/L, the MIC90 (Proteus mirabilis [10]) was 0.06 mg/L (≈ 0.11 µM) and the MIC (Proteus mirabilis [11]) was 8 mg/L (≈ 14.6 µM). It also gave an MIC50 (Pseudomonas aeruginosa [12]) of 2 mg/L (≈ 3.66 µM), an MIC90 (Pseudomonas aeruginosa [12]) of 32 mg/L (≈ 58.5 µM) and an MIC50 (Pseudomonas aeruginosa [13]) of 2 mg/L (≈ 3.66 µM). For the same compound, the MIC90 (Pseudomonas aeruginosa [13]) was 32 mg/L (≈ 58.5 µM), the Activity (Proteus mirabilis [14]) was 99.5% and the Activity (Proteus mirabilis [15]) was 50%. For the same compound, the MIC50 (Enterobacter cloacae [16]) was 0.25 mg/L (≈ 0.457 µM), the MIC90 (Enterobacter cloacae [16]) was 2 mg/L (≈ 3.66 µM) and the MIC50 (Enterobacter cloacae [17]) was > 32 mg/L. For the same compound, the MIC90 (Enterobacter cloacae [17]) was > 32 mg/L, the Activity (Enterobacter cloacae [18]) was 0.7% and the Activity (Enterobacter cloacae [19]) was 1%. For the same compound, the MIC (Citrobacter [20]) was > 32 mg/L, the MIC50 (Citrobacter [20]) was > 32 mg/L and the MIC90 (Citrobacter [20]) was > 32 mg/L. The Activity (Citrobacter [21]) was 0%, the Activity (Citrobacter [22]) was 0% and the MIC50 (Serratia marcescens [23]) was 0.12 mg/L (≈ 0.22 µM). The MIC90 (Serratia marcescens [23]) was 0.5 mg/L (≈ 0.915 µM), the Activity (Serratia marcescens [24]) was 100% and the Activity (Serratia marcescens [25]) was 0%. For the same compound, the MIC50 (Pseudomonas aeruginosa [26]) was 2 mg/L (≈ 3.66 µM), the MIC90 (Pseudomonas aeruginosa [26]) was 4 mg/L (≈ 7.32 µM) and the MIC50 (Pseudomonas aeruginosa [27]) was 2 mg/L (≈ 3.66 µM). For the same compound, the MIC90 (Pseudomonas aeruginosa [27]) was 8 mg/L (≈ 14.6 µM), the MIC50 (Pseudomonas aeruginosa [28]) was 4 mg/L (≈ 7.32 µM) and the MIC90 (Pseudomonas aeruginosa [28]) was > 32 mg/L. For the same compound, the Activity (Pseudomonas aeruginosa [29]) was 0%, the Activity (Pseudomonas aeruginosa [30]) was 0% and the Activity (Pseudomonas aeruginosa [31]) was 0%. For the same compound, the Activity (Pseudomonas aeruginosa [32]) was 23.6%, the Activity (Pseudomonas aeruginosa [33]) was 76.4% and the Activity (Pseudomonas aeruginosa [34]) was 90.9%. For the same compound, the Activity (Pseudomonas aeruginosa [35]) was 2.2%, the Activity (Pseudomonas aeruginosa [36]) was 76.3% and the Activity (Pseudomonas aeruginosa [37]) was 5.3%. For the same compound, the Activity (Acinetobacter) was 84.3%, the Activity (Pseudomonas aeruginosa [38]) was 2.3% and the Activity (Pseudomonas aeruginosa [39]) was 87.3%. The Activity (Pseudomonas aeruginosa [40]) was 14.4%.
